Measurements as given in patent US20240307487A1 (priority 2020, published 2024).
≈ marks a conversion by molar mass, not a printed value. Counter-ions that a name gives are not always drawn. Like-named read-outs stand apart in the source and are kept apart here. Where a SMILES comes first, the peptide text is derived from it.

Assays:
[1] = test system: SARS-CoV-2
[2] = test system: parainfluenza virus 3
[3] = test system: A(H1N1)pdm09 virus; format: cell-based
[4] = test system: endosomal acidification in MDCK cells; format: cell-based, canine
[5] = test system: virus-host endosomal acidification; format: cell-based
[6] = test system: SARS-CoV-2; format: binding
[7] = test system: A(H1N1)pdm09 virus; format: binding
[8] = test system: MERS-CoV; format: binding
[9] = test system: A(H7N9) virus; format: binding
[10] = test system: rhinovirus; format: binding; details: peptide coated on ELISA plate, bound virus by RT-qPCR
[11] = test system: SARS-CoV; format: binding
[12] = test system: parainfluenza 3 (Para-3); format: cell-based; details: 24 h post-infection
[13] = test system: MERS-CoV
[14] = test system: A(H7N9) virus
[15] = test system: rhinovirus
[16] = test system: rhinovirus; remark: listed apart in the source
[17] = target: H1N1 HA1 protein (Influenza A virus, UniProt C3W5S1)
Chain of H1N1 HA1 protein (C3W5S1 18-344 limits assumed): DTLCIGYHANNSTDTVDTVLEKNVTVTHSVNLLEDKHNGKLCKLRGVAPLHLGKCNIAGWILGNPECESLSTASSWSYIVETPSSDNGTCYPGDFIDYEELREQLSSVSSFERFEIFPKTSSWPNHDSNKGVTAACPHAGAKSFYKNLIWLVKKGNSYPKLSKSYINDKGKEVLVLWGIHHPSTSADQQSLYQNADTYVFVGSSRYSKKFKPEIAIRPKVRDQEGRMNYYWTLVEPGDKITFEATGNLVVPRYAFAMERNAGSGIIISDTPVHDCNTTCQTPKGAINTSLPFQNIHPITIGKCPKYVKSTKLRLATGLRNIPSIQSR

[18] = target: MERS-CoV S protein (Middle East respiratory syndrome-related coronavirus, UniProt K9N5Q8)
Chain of MERS-CoV S protein (K9N5Q8 18-1353 limits assumed): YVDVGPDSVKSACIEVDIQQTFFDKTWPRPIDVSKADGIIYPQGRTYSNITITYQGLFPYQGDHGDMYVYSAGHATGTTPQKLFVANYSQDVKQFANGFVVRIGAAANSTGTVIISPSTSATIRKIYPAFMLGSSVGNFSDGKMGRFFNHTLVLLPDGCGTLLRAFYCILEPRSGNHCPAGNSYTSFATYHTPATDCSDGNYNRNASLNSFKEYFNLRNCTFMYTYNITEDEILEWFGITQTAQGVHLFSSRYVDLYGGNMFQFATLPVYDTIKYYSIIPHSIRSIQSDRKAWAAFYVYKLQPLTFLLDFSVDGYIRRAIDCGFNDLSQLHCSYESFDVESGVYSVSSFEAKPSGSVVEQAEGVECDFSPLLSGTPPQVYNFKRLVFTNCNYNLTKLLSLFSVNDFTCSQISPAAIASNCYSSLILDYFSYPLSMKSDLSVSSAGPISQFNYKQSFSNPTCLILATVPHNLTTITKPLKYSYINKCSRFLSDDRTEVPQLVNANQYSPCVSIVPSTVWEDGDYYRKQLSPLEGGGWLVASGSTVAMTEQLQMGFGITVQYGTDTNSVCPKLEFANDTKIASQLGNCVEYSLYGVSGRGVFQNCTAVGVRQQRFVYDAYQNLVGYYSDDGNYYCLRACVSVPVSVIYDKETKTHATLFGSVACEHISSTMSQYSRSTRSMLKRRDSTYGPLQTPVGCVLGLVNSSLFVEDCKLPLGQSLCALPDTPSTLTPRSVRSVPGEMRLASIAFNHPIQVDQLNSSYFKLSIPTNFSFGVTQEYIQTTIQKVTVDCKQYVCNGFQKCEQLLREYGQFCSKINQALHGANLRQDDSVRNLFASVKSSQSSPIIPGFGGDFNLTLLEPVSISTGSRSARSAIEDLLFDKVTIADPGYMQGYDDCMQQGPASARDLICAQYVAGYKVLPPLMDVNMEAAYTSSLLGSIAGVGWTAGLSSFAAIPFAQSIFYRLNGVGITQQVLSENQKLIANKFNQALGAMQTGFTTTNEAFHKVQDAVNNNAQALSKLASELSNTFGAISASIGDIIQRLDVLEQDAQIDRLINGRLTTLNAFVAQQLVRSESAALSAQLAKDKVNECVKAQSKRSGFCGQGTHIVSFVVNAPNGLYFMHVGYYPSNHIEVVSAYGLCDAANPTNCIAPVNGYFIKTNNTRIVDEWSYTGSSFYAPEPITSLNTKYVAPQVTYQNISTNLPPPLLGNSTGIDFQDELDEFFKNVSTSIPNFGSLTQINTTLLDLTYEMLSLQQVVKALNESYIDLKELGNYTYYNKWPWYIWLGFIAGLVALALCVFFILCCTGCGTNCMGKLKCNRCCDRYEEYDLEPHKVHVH

[19] = in vitro; details: dog
[20] = in vitro; details: African green monkey
[21] = in vitro; details: human
[22] = test system: SARS-CoV-2; experiment: microbe, parasite or virus in culture; format: cell-based
[23] = in vivo; cited from earlier work
[24] = test system: spike-ACE2 mediated cell fusion; format: cell-based, human
[25] = test system: SARS-CoV; set-up: species or system mice; details: in vivo
[26] = test system: SARS-CoV-2; set-up: species or system hamsters; details: in vivo
[27] = test system: SARS-CoV-2; details: cited from earlier work
[28] = test system: SARS-CoV-2; details: cited from earlier work; remark: listed apart in the source
[29] = test system: SARS-CoV-2; format: cell-based
[30] = test system: SARS-CoV; format: cell-based

CC[C@H](C)[C@H](NC(=O)[C@H](C)NC(=O)CNC(=O)[C@@H](N)CC(N)=O)C(=O)N[C@@H](CS)C(=O)N[C@@H](Cc1c[nH]c2ccccc12)C(=O)NCC(=O)N1CCC[C@H]1C(=O)N[C@@H](CS)C(=O)N1CCC[C@H]1C(=O)N[C@H](C(=O)N[C@@H](C)C(=O)N[C@@H](Cc1ccccc1)C(=O)N[C@@H](CCCNC(=N)N)C(=O)N[C@@H](CCC(N)=O)C(=O)N[C@H](C(=O)NCC(=O)N[C@@H](CC(N)=O)C(=O)N[C@@H](CS)C(=O)NCC(=O)N[C@@H](Cc1c[nH]cn1)C(=O)N[C@@H](Cc1ccccc1)C(=O)N[C@@H](CCCCN)C(=O)N[C@H](C(=O)N[C@@H](CCCNC(=N)N)C(=O)N[C@@H](CS)C(=O)N[C@@H](CS)C(=O)N[C@@H](CCCCN)C(=O)N[C@H](C(=O)N[C@@H](CCCNC(=N)N)C(=O)O)[C@@H](C)CC)C(C)C)[C@@H](C)CC)[C@@H](C)O [P9, reference compound]
IC50 against SARS-CoV-2 [1]: 2.4 µg/mL (≈ 0.719 µM)
IC50 against parainfluenza virus 3 [2]: > 25.0 µg/mL

CC[C@H](C)[C@H](NC(=O)[C@H](C)NC(=O)CNC(=O)[C@@H](N)CC(N)=O)C(=O)N[C@@H](CS)C(=O)N[C@@H](Cc1c[nH]c2ccccc12)C(=O)NCC(=O)N1CCC[C@H]1C(=O)N[C@@H](CS)C(=O)N1CCC[C@H]1C(=O)N[C@H](C(=O)N[C@@H](C)C(=O)N[C@@H](Cc1ccccc1)C(=O)N[C@@H](CCCNC(=N)N)C(=O)N[C@@H](CCC(N)=O)C(=O)N[C@H](C(=O)NCC(=O)N[C@@H](CC(N)=O)C(=O)N[C@@H](CS)C(=O)NCC(=O)N[C@@H](CCCNC(=N)N)C(=O)N[C@@H](Cc1ccccc1)C(=O)N[C@@H](CCCNC(=N)N)C(=O)N[C@H](C(=O)N[C@@H](CCCNC(=N)N)C(=O)N[C@@H](CS)C(=O)N[C@@H](CS)C(=O)N[C@@H](CCCNC(=N)N)C(=O)N[C@H](C(=O)N[C@@H](CCCNC(=N)N)C(=O)O)[C@@H](C)CC)C(C)C)[C@@H](C)CC)[C@@H](C)O [P9R] (H-NGAICWGPCPTAFRQIGNCGRFRVRCCRIR-OH)
inhibition against A(H1N1)pdm09 virus compared with P9 [3]: significantly stronger inhibition
inhibition of endosomal acidification (no-virus endosomes) [4]: could more significantly inhibit endosomal acidification
inhibition of virus-host endosomal acidification [5]: could efficiently inhibit
binding to SARS-CoV-2 [6]: could efficiently bind
binding to A(H1N1)pdm09 virus [7]: could efficiently bind
binding to MERS-CoV [8]: could also bind
binding to A(H7N9) virus [9]: could also bind
binding to rhinovirus [10]: could also bind
binding to SARS-CoV [11]: could also bind
parainfluenza 3 viral RNA in LLC-MK2 cells [12]: inhibits parainfluenza 3 in LLC-MK2 cells
IC50 against SARS-CoV-2 [1]: 0.9 µg/mL (≈ 0.264 µM)
inhibition against MERS-CoV compared with P9 [13]: significantly stronger inhibition
inhibition against A(H7N9) virus compared with P9 [14]: significantly stronger inhibition
inhibition against rhinovirus compared with P9 [15]: significantly stronger inhibition
inhibition of viral replication, rhinovirus [16]: > 20 fold
binding to viral proteins: H1N1 HA1 protein [17]: could also bind
binding to viral proteins: MERS-CoV S protein [18]: could also bind
CC50 at 24 h [19]: > 300 µg/mL
CC50 at 24 h [20]: > 300 µg/mL
CC50 at 24 h [21]: > 300 µg/mL

CCOC(=O)c1c(CSc2ccccc2)n(C)c2cc(Br)c(O)c(CN(C)C)c12 [arbidol]
IC50 ([22]; Severe acute respiratory syndrome coronavirus 2, Vero C1008, 24 h, read-out: normal IC50 of arbidol against SARS-CoV-2): 3.6 µg/mL (≈ 7.54 µM)
peak serum concentration [23]: lower than 2 μg ml-1

CO/C1=C\C(C)=C\[C@@H](C)[C@@H](O)[C@@H](C)C/C(C)=C/C=C/[C@H](OC)[C@@H]([C@@H](C)[C@@H](O)[C@H](C)[C@@]2(O)C[C@@H](O)[C@H](C)[C@@H](C(C)C)O2)OC1=O [bafilomycin A1, reference compound]
inhibition of virus-host endosomal acidification [5]: could efficiently inhibit
spike-ACE2 mediated cell membrane fusion [24]: could inhibit spike-ACE2 mediated cell membrane fusion

CN(C)C(=O)COC(=O)Cc1ccc(OC(=O)c2ccc(NC(=N)N)cc2)cc1 [camostat, Camostat mesylate]
SARS-CoV replication in mouse lungs [25]: could not inhibit viral replication
SARS-CoV-2 replication in hamster lungs [26]: could not significantly inhibit SARS-CoV-2 replication in hamsters
SARS-CoV-2 replication in Calu-3 cells [27]: could significantly inhibit SARS-CoV-2 replication in Calu-3 cells
SARS-CoV-2 replication in Vero-E6 cells [28]: could not inhibit SARS-CoV-2 replication

CCN(CC)CCCC(C)Nc1ccnc2cc(Cl)ccc12 (stereo not shown) [chloroquine]
SARS-CoV-2 replication in Vero-E6 cells [22]: could significantly inhibit SARS-CoV-2 replication in Vero-E6 cells
enhancement of antiviral activity of arbidol against SARS-CoV-2 [22]: could significantly enhance the antiviral activity of arbidol
SARS-CoV-2 replication in Calu-3 cells [29]: not in Calu-3 cells
enhancement of antiviral activity of arbidol against SARS-CoV [30]: could significantly enhance the antiviral activity of arbidol
SARS-CoV replication in mouse lungs [25]: could not inhibit SARS-CoV replication in mouse lungs
SARS-CoV-2 replication in hamster lungs [26]: could not significantly inhibit SARS-CoV-2 replication in hamsters
SARS-CoV-2 replication in Calu-3 cells [27]: did not inhibit SARS-CoV-2 replication in Calu-3 cells
